For 25 compounds, IC50 results are on record in patent US10660877B2 (BRISTOL-MYERS SQUIBB COMPANY, priority 2016, dated 2020).

By IC50 is commonly meant the concentration that gives 50% inhibition.

Read-outs that look alike come from different tables or passages of the source.

One assay has as its target human TLR7 (Homo sapiens (Human), UniProt Q9NYK1). The experiment in a line: TLR7 inhibition reporter assay (HEK-Blue cells, SEAP reporter, gardiquimod stimulation). In kind it is cell-based.
In a further assay the target is human TLR8 (Homo sapiens (Human), UniProt Q9NR97). As to the kind of experiment: TLR8 inhibition reporter assay (HEK-Blue cells, SEAP reporter, R848 stimulation).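 Note: compounds tested from 0.05 nM to 50 µM, 22 h at 37 °C, SEAP measured with HEK-Blue Detection, inhibition relative to agonist plus DMSO versus a known inhibitor.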 Background: A reporter such as luciferase makes a cellular process visible.
In the next assay the target is human TLR9 (Homo sapiens (Human), UniProt Q9NR96). As to the kind of experiment: TLR9 inhibition reporter assay (HEK-Blue cells, SEAP reporter, ODN2006 stimulation).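 Note: compounds tested over 0.05 nM to 50 µM, 22 h incubation, inhibition taken as SEAP signal drop from agonist plus DMSO wells toward a known inhibitor control.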
The mark [1] stands for this setting: HEK-Blue cells overexpressing human TLR7, gardiquimod 7.5 μM.
The mark [2] stands for this setting: read-out: TLR8 IC50, HEK-Blue cells overexpressing human TLR8, R848 15.9 μM.
Where [3] appears, read: read-out: TLR9 IC50, HEK-Blue cells overexpressing human TLR9, ODN2006 5 nM.
Setting [4] is: HEK-Blue cells, gardiquimod 7.5 μM.
Where [5] appears, read: read-out: TLR8 IC50, HEK-Blue cells, R848 15.9 μM.
[6] abbreviates: read-out: TLR9 IC50, HEK-Blue cells, ODN2006 5 nM.

human TLR8, sequence (Q9NR97 27-1041): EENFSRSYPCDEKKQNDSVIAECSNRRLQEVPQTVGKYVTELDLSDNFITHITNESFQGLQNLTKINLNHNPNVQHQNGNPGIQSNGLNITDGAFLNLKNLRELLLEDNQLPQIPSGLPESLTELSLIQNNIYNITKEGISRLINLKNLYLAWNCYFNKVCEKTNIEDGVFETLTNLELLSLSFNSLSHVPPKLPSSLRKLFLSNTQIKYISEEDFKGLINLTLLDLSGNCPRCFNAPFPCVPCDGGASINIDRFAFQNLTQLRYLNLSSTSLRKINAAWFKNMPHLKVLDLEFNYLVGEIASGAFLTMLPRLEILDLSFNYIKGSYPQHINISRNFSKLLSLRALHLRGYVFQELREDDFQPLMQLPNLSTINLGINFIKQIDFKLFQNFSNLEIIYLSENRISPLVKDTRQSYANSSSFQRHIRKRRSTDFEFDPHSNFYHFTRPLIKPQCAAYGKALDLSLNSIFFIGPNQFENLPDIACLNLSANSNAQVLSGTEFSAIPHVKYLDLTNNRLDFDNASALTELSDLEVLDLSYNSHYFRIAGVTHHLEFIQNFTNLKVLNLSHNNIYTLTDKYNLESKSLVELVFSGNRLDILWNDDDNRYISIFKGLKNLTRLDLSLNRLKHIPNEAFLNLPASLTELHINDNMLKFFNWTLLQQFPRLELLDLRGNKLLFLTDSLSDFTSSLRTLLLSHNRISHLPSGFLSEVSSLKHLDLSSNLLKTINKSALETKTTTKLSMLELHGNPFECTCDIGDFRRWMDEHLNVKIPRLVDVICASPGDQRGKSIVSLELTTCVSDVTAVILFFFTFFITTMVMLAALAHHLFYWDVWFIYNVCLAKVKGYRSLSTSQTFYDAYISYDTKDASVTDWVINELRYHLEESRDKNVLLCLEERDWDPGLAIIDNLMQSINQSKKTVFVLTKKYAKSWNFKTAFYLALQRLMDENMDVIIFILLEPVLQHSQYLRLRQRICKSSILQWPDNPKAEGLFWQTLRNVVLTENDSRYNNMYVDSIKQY
human TLR9, sequence (Q9NR96 26-1032): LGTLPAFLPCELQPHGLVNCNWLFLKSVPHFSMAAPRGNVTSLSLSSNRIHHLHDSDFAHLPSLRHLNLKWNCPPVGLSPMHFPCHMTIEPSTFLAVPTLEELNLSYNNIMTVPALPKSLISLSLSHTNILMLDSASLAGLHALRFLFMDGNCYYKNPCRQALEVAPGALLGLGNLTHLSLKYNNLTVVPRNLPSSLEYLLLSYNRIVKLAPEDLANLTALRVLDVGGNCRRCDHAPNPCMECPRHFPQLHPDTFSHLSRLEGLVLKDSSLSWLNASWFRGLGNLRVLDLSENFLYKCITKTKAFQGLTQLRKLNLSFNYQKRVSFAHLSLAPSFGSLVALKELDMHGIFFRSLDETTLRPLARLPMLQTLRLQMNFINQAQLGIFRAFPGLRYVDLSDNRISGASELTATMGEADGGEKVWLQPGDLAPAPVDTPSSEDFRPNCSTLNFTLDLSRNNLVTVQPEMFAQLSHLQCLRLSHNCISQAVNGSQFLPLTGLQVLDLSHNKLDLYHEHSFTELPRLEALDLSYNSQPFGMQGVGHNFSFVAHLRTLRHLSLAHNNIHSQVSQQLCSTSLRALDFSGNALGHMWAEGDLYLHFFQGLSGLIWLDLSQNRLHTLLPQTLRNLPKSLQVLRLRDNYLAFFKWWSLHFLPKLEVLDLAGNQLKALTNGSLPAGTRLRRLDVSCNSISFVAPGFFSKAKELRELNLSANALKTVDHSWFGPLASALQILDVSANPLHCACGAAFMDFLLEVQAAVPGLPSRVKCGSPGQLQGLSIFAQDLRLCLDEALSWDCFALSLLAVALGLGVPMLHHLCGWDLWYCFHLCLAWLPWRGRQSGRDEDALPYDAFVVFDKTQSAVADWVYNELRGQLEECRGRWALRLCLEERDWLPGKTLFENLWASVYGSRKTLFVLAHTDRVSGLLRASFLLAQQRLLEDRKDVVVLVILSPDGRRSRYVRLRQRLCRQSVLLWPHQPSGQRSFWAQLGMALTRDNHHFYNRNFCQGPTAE
human TLR7, sequence (Q9NYK1 27-1049): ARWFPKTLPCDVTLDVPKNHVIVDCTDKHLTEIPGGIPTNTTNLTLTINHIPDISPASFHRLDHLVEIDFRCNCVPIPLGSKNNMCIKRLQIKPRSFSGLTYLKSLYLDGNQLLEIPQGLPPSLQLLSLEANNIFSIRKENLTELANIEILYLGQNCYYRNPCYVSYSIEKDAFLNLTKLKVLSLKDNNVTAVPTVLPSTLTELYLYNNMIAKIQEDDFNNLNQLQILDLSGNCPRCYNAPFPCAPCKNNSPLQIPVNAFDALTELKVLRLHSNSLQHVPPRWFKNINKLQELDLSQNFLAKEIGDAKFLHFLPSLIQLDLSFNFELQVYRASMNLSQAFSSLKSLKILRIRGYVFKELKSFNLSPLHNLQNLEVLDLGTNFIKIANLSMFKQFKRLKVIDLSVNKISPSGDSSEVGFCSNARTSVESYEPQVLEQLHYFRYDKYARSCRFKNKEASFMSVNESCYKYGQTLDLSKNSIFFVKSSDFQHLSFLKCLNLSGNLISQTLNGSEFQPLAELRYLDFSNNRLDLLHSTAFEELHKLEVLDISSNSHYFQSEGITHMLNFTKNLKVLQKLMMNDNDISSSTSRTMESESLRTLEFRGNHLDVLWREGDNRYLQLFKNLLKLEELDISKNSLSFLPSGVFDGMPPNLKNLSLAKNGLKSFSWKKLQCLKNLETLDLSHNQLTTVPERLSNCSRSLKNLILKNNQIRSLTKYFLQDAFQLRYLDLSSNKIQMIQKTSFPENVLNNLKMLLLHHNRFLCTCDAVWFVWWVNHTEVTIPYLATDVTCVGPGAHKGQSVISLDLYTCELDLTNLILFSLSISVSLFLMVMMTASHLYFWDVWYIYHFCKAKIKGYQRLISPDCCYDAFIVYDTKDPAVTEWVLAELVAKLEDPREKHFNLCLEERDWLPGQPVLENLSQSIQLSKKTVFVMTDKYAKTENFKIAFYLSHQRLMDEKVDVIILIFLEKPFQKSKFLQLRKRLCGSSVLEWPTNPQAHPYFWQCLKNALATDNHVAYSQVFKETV

In the case of `Cc1nc(CN2CCC(c3ccc4[nH]c(-c5ccnc(C6CC6)c5)c(C(C)C)c4c3)CC2)c[nH]1` [Example 484, 2-(2-cyclopropylpyridin-4-yl)-3-isopropyl-5-(1-((2-methyl-1H-imidazol-4-yl)methyl)piperidin-4-yl)-1H-indole], the IC50 at human TLR7 (setting [1]) worked out at 77.6 nM; at human TLR8 (setting [2]), 96.3 nM; on human TLR9 (setting [3]) it was 279 nM.

In the case of `Cc1cc(-c2[nH]c3cc(F)c(C4CCN(C5CCOCC5)CC4)cc3c2C(C)C)cc(C)n1` [Example 831, 2-(2,6-dimethylpyridin-4-yl)-6-fluoro-3-isopropyl-5-(1-(tetrahydro-2H-pyran-4-yl)piperidin-4-yl)-1H-indole], the IC50 on human TLR7 (setting [4]) is 6.2 nM; at human TLR8 (setting [5]), 11.6 nM; on human TLR9 (setting [6]), 567 nM.

For the compound `Cc1cc(-c2[nH]c3ccc(C4CCN(C(=O)c5ccon5)CC4)cc3c2C(C)C)cc(C)n1` [Example 203, (4-(2-(2,6-dimethylpyridin-4-yl)-3-isopropyl-1H-indol-5-yl)piperidin-1-yl)(isoxazol-3-yl)methanone], the results for the IC50 at human TLR7 (setting [1]), at human TLR8 (setting [2]) and on human TLR9 (setting [3]) were 2 nM, 113 nM and 3180 nM, respectively.

Regarding `Cc1cc(-c2[nH]c3ccc(C4CCN(C5COC5)CC4)cc3c2C(C)C)c(F)c(C)n1` [Example 729, 2-(3-fluoro-2,6-dimethylpyridin-4-yl)-3-isopropyl-5-(1-(oxetan-3-yl)piperidin-4-yl)-1H-indole], the figures for the IC50 against human TLR7 (setting [1]), on human TLR8 (setting [2]) and at human TLR9 (setting [3]) were 10.1 nM, 33.6 nM and 3620 nM, respectively.

Regarding `Cc1cc(-c2[nH]c3ccc(C4CCN(C(=O)[C@@H](N)CCCN)CC4)cc3c2C(C)C)ccn1` [Example 577, (S)-2,5-diamino-1-(4-(3-isopropyl-2-(2-methylpyridin-4-yl)-1H-indol-5-yl)piperidin-1-yl)pentan-1-one], the figures for the IC50 against human TLR7 (setting [1]), at human TLR8 (setting [2]) and on human TLR9 (setting [3]) were 121 nM, 58.4 nM and 8130 nM, respectively.

As to `Cc1cc(-c2[nH]c3cc(F)c(C4CCNCC4)cc3c2C(C)C)cc(C)n1` [Example 78, 2-(2,6-dimethylpyridin-4-yl)-6-fluoro-3-isopropyl-5-(piperidin-4-yl)-1H-indole], the figures for the IC50 on human TLR7 (setting [1]), on human TLR8 (setting [2]) and on human TLR9 (setting [3]) were 0.8 nM, 2.7 nM and 145 nM, respectively.

As to `CCc1c(-c2ccnc(C)c2)[nH]c2ccc(C3CCN(C(=O)C4CC5(CCNCC5)C4)CC3)cc12` [Example 631, (4-(3-ethyl-2-(2-methylpyridin-4-yl)-1H-indol-5-yl)piperidin-1-yl)(7-azaspiro[3.5]nonan-2-yl)methanone], the results for the concentration for half-maximal inhibition (IC50) at human TLR7 (setting [1]), on human TLR8 (setting [2]) and at human TLR9 (setting [3]) were 75.6 nM, 36.8 nM and 434 nM, respectively.

As to `Cc1cc(-c2[nH]c3ccc(C4CCN(C(=O)C5CC5)CC4)cc3c2C(C)C)ccn1` [Example 606, cyclopropyl(4-(3-isopropyl-2-(2-methylpyridin-4-yl)-1H-indol-5-yl)piperidin-1-yl)methanone], the IC50 against human TLR7 (setting [1]) amounted to 56.5 nM; on human TLR8 (setting [2]), 186 nM; at human TLR9 (setting [3]), 40900 nM.

Take `CCc1c(-c2ccnc(C)c2)[nH]c2ccc(C3CCN(C(=O)C4(C)CCNCC4)CC3)cc12` [Example 626, (4-(3-ethyl-2-(2-methylpyridin-4-yl)-1H-indol-5-yl)piperidin-1-yl)(4-methylpiperidin-4-yl)methanone]: the IC50 worked out at 62.6 nM against human TLR7 (setting [1]), 53.5 nM on human TLR8 (setting [2]) and 169 nM on human TLR9 (setting [3]).

Regarding `Cc1cc(-c2[nH]c3ccc(C4CCN(C(=O)C(=O)N(C)C)CC4)cc3c2C(C)C)ccn1` [Example 878, 2-(4-(3-isopropyl-2-(2-methylpyridin-4-yl)-1H-indol-5-yl)piperidin-1-yl)-N,N-dimethyl-2-oxoacetamide], the results for the IC50 on human TLR7 (setting [4]), at human TLR8 (setting [5]) and at human TLR9 (setting [6]) were 55.1 nM, 175 nM and 28000 nM, respectively.

For the compound `Cc1cc(-c2[nH]c3ccc(C4CCN(C(=O)CN5CCNC(=O)C5)CC4)cc3c2C(C)C)cc(C)n1` [Example 379, 4-(2-(4-(2-(2,6-dimethylpyridin-4-yl)-3-isopropyl-1H-indol-5-yl)piperidin-1-yl)-2-oxoethyl) piperazin-2-one], the IC50 against human TLR7 (setting [1]) is 7.7 nM; on human TLR8 (setting [2]), 55.2 nM; on human TLR9 (setting [3]) it was 3920 nM.

In the case of `Cc1cc(-c2[nH]c3ccc(C4CCN(Cc5nncn5C)CC4)cc3c2C(C)C)c(F)cn1` [Example 737, 2-(5-fluoro-2-methylpyridin-4-yl)-3-isopropyl-5-(1-((4-methyl-4H-1,2,4-triazol-3-yl)methyl)piperidin-4-yl)-1H-indole], the figures for the half-inhibitory concentration (IC50) against human TLR7 (setting [1]), on human TLR8 (setting [2]) and on human TLR9 (setting [3]) were 14.5 nM, 5.1 nM and over 50000 nM, respectively.

Take `Cc1cc(-c2[nH]c3ccc(C4CCN(C5CC(C)OC(C)C5)CC4)cc3c2C(C)C)cc(C)n1` (stereo not drawn) [Example 454, 2-(2,6-dimethylpyridin-4-yl)-5-(1-(2,6-dimethyltetrahydro-2H-pyran-4-yl)piperidin-4-yl)-3-isopropyl-1H-indole]: the concentration for half-maximal inhibition (IC50) against human TLR7 (setting [1]) was 11 nM; at human TLR8 (setting [2]), 10.2 nM; at human TLR9 (setting [3]), 358 nM.

For `Cc1cc(-c2[nH]c3ccc(C4CCN(C(=O)C(C)(C)N)CC4)cc3c2C(C)C)cc(C)n1` [Example 194, 2-amino-1-(4-(2-(2,6-dimethylpyridin-4-yl)-3-isopropyl-1H-indol-5-yl)piperidin-1-yl)-2-methylpropan-1-one], the IC50 against human TLR7 (setting [1]) is 0.6 nM; at human TLR8 (setting [2]), 9.3 nM; on human TLR9 (setting [3]), 213 nM.

As to `CCN(CC)CCCN1CCC(c2ccc3[nH]c(-c4cc(C)nc(C)c4)c(C(C)C)c3c2)CC1` [Example 671, 3-(4-(2-(2,6-dimethylpyridin-4-yl)-3-isopropyl-1H-indol-5-yl)piperidin-1-yl)-N,N-diethylpropan-1-amine], the IC50 came out at 0.6 nM against human TLR7 (setting [1]), 2.6 nM on human TLR8 (setting [2]) and 76 nM at human TLR9 (setting [3]).

With `Cc1cc(-c2[nH]c3ccc(C4CCNCC4)cc3c2C(C)C)c(C(N)=O)cn1` [Example 15, 4-(3-isopropyl-5-(piperidin-4-yl)-1H-indol-2-yl)-6-methylnicotinamide], the IC50 against human TLR7 (setting [1]) was 1540 nM; on human TLR8 (setting [2]), 448 nM; at human TLR9 (setting [3]), 26500 nM.

Regarding `Cc1cc(-c2[nH]c3ccc(C4CCN(C(=O)Cn5ccccc5=O)CC4)cc3c2C(C)C)cc(C)n1` [Example 157, 1-(2-(4-(2-(2,6-dimethylpyridin-4-yl)-3-isopropyl-1H-indol-5-yl)piperidin-1-yl)-2-oxoethyl)pyridin-2(1H)-one], the figures for the IC50 at human TLR7 (setting [1]), at human TLR8 (setting [2]) and at human TLR9 (setting [3]) were 16.5 nM, 65.7 nM and 2500 nM, respectively.

In the case of `Cc1nccc(-c2[nH]c3ccc(C4CCNCC4)cc3c2C(C)C)c1C` [Example 30, 2-(2,3-dimethylpyridin-4-yl)-3-isopropyl-5-(piperidin-4-yl)-1H-indole], the results for the IC50 against human TLR7 (setting [1]), at human TLR8 (setting [2]) and at human TLR9 (setting [3]) were 28.5 nM, 22.3 nM and 708 nM, respectively.

As for `CC(=O)N1CCC(N2CCC(c3ccc4[nH]c(-c5ccnc(C)c5)c(C(C)C)c4c3)CC2)CC1` [Example 827, 1-(4-(3-isopropyl-2-(2-methylpyridin-4-yl)-1H-indol-5-yl)-[1,4′-bipiperidin]-1′-yl)ethan-1-one], the IC50 on human TLR7 (setting [4]) is 12.7 nM; at human TLR8 (setting [5]) it was 5.2 nM; at human TLR9 (setting [6]), 753 nM.

Turning to `Cc1cc(-c2[nH]c3ccc(C4CCN(C(=O)CCCN(C)C)CC4)cc3c2C(C)C)cc(C)n1` [Example 111, 4-(dimethylamino)-1-(4-(2-(2,6-dimethylpyridin-4-yl)-3-isopropyl-1H-indol-5-yl)piperidin-1-yl)butan-1-one], the IC50 against human TLR7 (setting [1]) worked out at 75.9 nM; on human TLR8 (setting [2]) it was 255 nM; at human TLR9 (setting [3]) it was 12900 nM.

As for `Cc1cc(-c2[nH]c3ccc(C4CCN(C(=O)c5c(C)nn(C)c5C)CC4)cc3c2C(C)C)cc(C)n1` [Example 131, (4-(2-(2,6-dimethylpyridin-4-yl)-3-isopropyl-1H-indol-5-yl)piperidin-1-yl)(1,3,5-trimethyl-1H-pyrazol-4-yl)methanone], the values for the IC50 on human TLR7 (setting [1]), at human TLR8 (setting [2]) and on human TLR9 (setting [3]) were 12 nM, 77.1 nM and 17500 nM, respectively.

With `Cc1cc(-c2[nH]c3ccc(C4CCN(C(=O)CN(C)[C@@H]5CCOC5)CC4)cc3c2C(C)C)cc(C)n1` [Example 402, (R)-1-(4-(2-(2,6-dimethylpyridin-4-yl)-3-isopropyl-1H-indol-5-yl)piperidin-1-yl)-2-(methyl(tetrahydrofuran-3-yl)amino) ethan-1-one], the IC50 on human TLR7 (setting [1]) turned out to be 11.1 nM; at human TLR8 (setting [2]), 61.1 nM; at human TLR9 (setting [3]), 1820 nM.

On to `Cc1cc(-c2[nH]c3ccc(C4CCN(Cc5ncn(C)n5)CC4)cc3c2C(C)C)c(C)cn1` [Example 723, 2-(2,5-dimethylpyridin-4-yl)-3-isopropyl-5-(1-((1-methyl-1H-1,2,4-triazol-3-yl)methyl)piperidin-4-yl)-1H-indole], for which the IC50 at human TLR7 (setting [1]) worked out at 78.4 nM; at human TLR8 (setting [2]) it was 8.4 nM; on human TLR9 (setting [3]), 14500 nM.

Consider `Cc1cc(-c2[nH]c3ccc(C4CCN(CC(=O)NCC5(C)CC5)CC4)cc3c2C(C)C)cc(C)n1` [Example 255, 2-(4-(2-(2,6-dimethylpyridin-4-yl)-3-isopropyl-1H-indol-5-yl)piperidin-1-yl)-N-((1-methylcyclopropyl)methyl)acetamide], for which the figures for the half-inhibitory concentration (IC50) against human TLR7 (setting [1]), at human TLR8 (setting [2]) and at human TLR9 (setting [3]) were 6.9 nM, 20.4 nM and 654 nM, respectively.

`Cc1cc(-c2[nH]c3ccc(C4CCN(C(C)CF)CC4)cc3c2C(C)C)c(C)cn1` (stereo not drawn) [Example 870, 2-(2,5-dimethylpyridin-4-yl)-5-(1-(1-fluoropropan-2-yl)piperidin-4-yl)-3-isopropyl-1H-indole]: the IC50 on human TLR7 (setting [4]) was determined as 19.7 nM; on human TLR8 (setting [5]) it was 4.1 nM; at human TLR9 (setting [6]) it was 1440 nM.
